Source: patent US10294229B2, “Heteroaryl substituted aminopyridine compounds” (BRISTOL-MYERS SQUIBB COMPANY, priority 2015, dated 2019)
pEC50, pIC50: −log10 of the molar value.

Key:
[1] = Caco-2 Permeability Assay; assay type: in vitro ADME; settings: human, Caco-2, test compound 3 μM
Procedure: Caco-2 Permeability Assay
Thirteen to 27 days prior to assay, Caco-2 cells were seeded onto collagen-coated polycarbonate filter membranes in 24-well transwell plates at a density of 1.45×10^5 cells/cm^2, approximately 4.8×10^4 cells per well. The cells were grown in a culture medium consisting of DMEM supplemented with 10% fetal bovine serum, 10 mM HEPES, 1% nonessential amino acids, 2 mM L-glutamine, 100 U/mL penicillin-G, and 100 μg/mL streptomycin. The culture medium was replaced every 3 days and the cells were maintained at 37° C. in a 95% relative humidity and 5% CO2 atmosphere. The cells were evaluated for tight junction formation just prior to assay. The test compound was solubilized to 10 mM in 100% DMSO and diluted to 3 μM in assay buffer. Permeability studies were initiated by adding 200 μL assay buffer plus/minus compound to the apical transwell compartment and 600 μL assay buffer plus/minus compound to the basolateral compartment of the 24-well transwell low-binding cluster plate. For apical-to-basolateral (A to B) permeability (absorptive direction), buffer containing compound was placed in the apical compartment (donor wells), while buffer alone was placed in the corresponding basolateral compartments (receiver wells). For basolateral-to-apical (B to A) permeability (secretive direction), buffer containing compound was placed in the basolateral compartment (donor wells), while buffer alone was placed in the corresponding apical compartments (receiver wells). Transwells were then incubated for 2 hours at 37° C. in a 95% relative humidity and 5% CO2 atmosphere with gentle agitation. Following incubation, 100 μL was removed from each apical and basolateral compartment and transferred to 96-well low binding plates that had been previously loaded with 100 μL/well of acetonitrile containing 250 nM propranolol, 250 nM diclofenac, and 500 nM tolbutamide as internal standards. The samples were subsequently analyzed by LC-MS/MS to determine concentrations of compound.

IRAK4 = IRAK4 (Homo sapiens (Human), UniProt Q9NWZ3); experiment: IRAK4 Inhibition Assay; assay type: biochemical; settings: ATP 500 μM; IRAK4 0.6 nM
IRAK4, sequence (Q9NWZ3 whole entry, species assumed): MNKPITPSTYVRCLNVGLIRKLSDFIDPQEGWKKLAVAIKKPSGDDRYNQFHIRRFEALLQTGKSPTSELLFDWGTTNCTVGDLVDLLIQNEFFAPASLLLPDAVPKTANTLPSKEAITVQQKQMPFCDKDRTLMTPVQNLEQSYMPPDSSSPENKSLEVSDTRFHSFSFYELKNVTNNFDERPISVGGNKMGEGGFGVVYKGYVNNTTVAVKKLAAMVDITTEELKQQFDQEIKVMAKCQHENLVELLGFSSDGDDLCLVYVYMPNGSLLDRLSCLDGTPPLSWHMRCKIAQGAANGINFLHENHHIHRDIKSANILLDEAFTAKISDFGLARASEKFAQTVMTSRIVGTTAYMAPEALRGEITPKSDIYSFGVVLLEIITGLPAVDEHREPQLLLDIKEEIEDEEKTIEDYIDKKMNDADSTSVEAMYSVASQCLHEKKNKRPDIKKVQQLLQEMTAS
How it was run: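 Readout: electrophoretic (LabChip) separation of fluorescent peptide substrate from phosphorylated product after EDTA quench. Reactions ran 60 min at room temperature with 0.6 nM IRAK4, 1.5 μM peptide and 500 μM ATP; inhibition referenced to no-enzyme (100%) and vehicle (0%) controls.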

[2] = system: Human whole blood stimulated with a TLR2 agonist (lipoteichoic acid), IL-6 levels; experiment: IRAK4 Whole Blood Assay; assay type: cell-based; settings: lipoteichoic acid 10 μg/mL
How it was run: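 IL-6 was quantified by cytometric bead assay in supernatants of human blood (ACD-A) stimulated for 5 h with lipoteichoic acid at 10 μg/mL final. Compound exposure preceded stimulation for 60 min at 37 °C, 5% CO2.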

SMILES | Papp at 2 h, 3 µM [1] | pIC50 (IRAK4) | pEC50 ([2]; Homo sapiens) | pEC50 [2]
CC(=O)N1CC[C@@H](c2cc(-c3cnc(-n4ncc5cc(C#N)cnc54)cc3NC(C)C)on2)C1 [Example 406, (R)-1-(5-(3-(1-acetylpyrrolidin-3-yl)isoxazol-5-yl)-4-(isopropylamino)pyridin-2-yl)-1H-pyrazolo [3,4-b]pyridine-5-carbonitrile] | 16.3 ×10⁻⁶ cm/s | 8.52 | 6.33 | 
CC(C)Nc1cc(-n2ncc3cc(C#N)cnc32)ncc1-c1cn(C[C@H](O)c2ccccc2)nn1 [Example 85, (R)-1-(5-(1-(2-hydroxy-2-phenylethyl)-1H-1,2,3-triazol-4-yl)-4-(isopropylamino)pyridin-2-yl)-1H-pyrazolo[3,4-b]pyridine-5-carbonitrile] | 6.9 ×10⁻⁶ cm/s | 8.30 | 6.51 | 
CC(C)Nc1cc(-n2ncc3cc(C#N)cnc32)ncc1-c1cn([C@@H]2CCN(S(C)(=O)=O)C[C@@H]2O)nn1 [Example 188, 1-(5-(1-((3S,4R)-3-hydroxy-1-(methylsulfonyl)piperidin-4-yl)-1H-1,2,3-triazol-4-yl)-4-(isopropylamino)pyridin-2-yl)-1H-pyrazolo[3,4-b]pyridine-5-carbonitrile] | < 1.5 ×10⁻⁶ cm/s | 7.74 | 6.96 | 
CC(C)Nc1cc(-n2ccc3cncnc32)ncc1-c1cn([C@@H]2CCNC[C@H]2O)nn1 [Example 4, (3R,4R)-4-(4-(4-(isopropylamino)-6-(7H-pyrrolo[2,3-d]pyrimidin-7-yl)pyridin-3-yl)-1H-1,2,3-triazol-1-yl)piperidin-3-ol] | < 1.5 ×10⁻⁶ cm/s | 8.52 | 5.60 | 
CC(C)Nc1cc(-n2cnc3cc(C#N)cnc32)ncc1-c1cn(C2CN(C)C2)nn1 [Example 152, 3-(4-(isopropylamino)-5-(1-(1-methylazetidin-3-yl)-1H-1,2,3-triazol-4-yl)pyridin-2-yl)-3H-imidazo[4,5-b]pyridine-6-carbonitrile] | 15.8 ×10⁻⁶ cm/s | 8.40 | 6.12 | 
CCOC(=O)N1CC[C@H](n2cc(-c3cnc(-n4ncc5cc(C#N)cnc54)cc3NC(C)C)nn2)[C@H](O)C1 [Example 180, (3R,4S)-ethyl 4-(4-(6-(5-cyano-1H-pyrazolo[3,4-b]pyridin-1-yl)-4-(isopropylamino)pyridin-3-yl)-1H-1,2,3-triazol-1-yl)-3-hydroxypiperidine-1-carboxylate] | 3.2 ×10⁻⁶ cm/s | 7.96 | 5.67 | 
CC(C)Nc1cc(-n2ncc3cc(C#N)cnc32)ncc1-c1cc([C@H]2CCNC2)no1 [Example 404, (S)-1-(4-(isopropylamino)-5-(3-(pyrrolidin-3-yl)isoxazol-5-yl)pyridin-2-yl)-1H-pyrazolo[3,4-b]pyridine-5-carbonitrile] | < 1.5 ×10⁻⁶ cm/s | 8.52 | 6.64 | 
CC(C)Nc1cc(-n2ncc3cc(C#N)cnc32)ncc1-c1cc([C@@H]2COCCN2)on1 [Example 428, (S)-1-(4-(isopropylamino)-5-(5-(morpholin-3-yl)isoxazol-3-yl)pyridin-2-yl)-1H-pyrazolo[3,4-b]pyridine-5-carbonitrile] | 26.3 ×10⁻⁶ cm/s | 8.40 | 6.34 | 
CC(C)Nc1cc(-n2ncc3cc(C#N)cnc32)ncc1-c1cc([C@@H]2C[C@H](O)CCN2)no1 [Example 424, 1-(5-(3-((2S,4R)-4-hydroxypiperidin-2-yl)isoxazol-5-yl)-4-(isopropylamino)pyridin-2-yl)-1H-pyrazolo[3,4-b]pyridine-5-carbonitrile] | < 1.5 ×10⁻⁶ cm/s | 8.00 | 6.74 | 
CC(C)(O)CCc1cn(-c2cnc(-n3ncc4cc(C#N)cnc43)cc2NCCCF)nn1 [Example 370, 1-(4-((3-fluoropropyl)amino)-5-(4-(3-hydroxy-3-methylbutyl)-1H-1,2,3-triazol-1-yl)pyridin-2-yl)-1H-pyrazolo[3,4-b]pyridine-5-carbonitrile] | 2.5 ×10⁻⁶ cm/s | 8.05 | 6.55 | 
CC(=O)N1CCC[C@@H]1c1cc(-c2cnc(-n3ncc4cc(C#N)cnc43)cc2NC(C)C)on1 [Example 417, (R)-1-(5-(3-(1-acetylpyrrolidin-2-yl)isoxazol-5-yl)-4-(isopropylamino)pyridin-2-yl)-1H-pyrazolo [3,4-b]pyridine-5-carbonitrile] | 29.2 ×10⁻⁶ cm/s | 8.15 | 6.47 | 
CCNc1cc(-n2ncc3cc(C#N)cnc32)ncc1C1=NOC(CCC(C)(C)O)C1 (stereo not drawn) [Example 440, 1-(4-(ethylamino)-5-(5-(3-hydroxy-3-methylbutyl)-4,5-dihydroisoxazol-3-yl)pyridin-2-yl)-1H-pyrazolo[3,4-b]pyridine-5-carbonitrile] | 31.6 ×10⁻⁶ cm/s | 8.40 | 6.55 | 
CC(=O)N1CC[C@H](c2cc(-c3cnc(-n4ncc5cc(C#N)cnc54)cc3NC(C)C)on2)C1 [Example 405, (S)-1-(5-(3-(1-acetylpyrrolidin-3-yl)isoxazol-5-yl)-4-(isopropylamino)pyridin-2-yl)-1H-pyrazolo[3,4-b]pyridine-5-carbonitrile] | 12.5 ×10⁻⁶ cm/s | 8.40 | 6.59 | 
CC(=O)N1CC(c2cc(-c3cnc(-n4ncc5cc(C#N)cnc54)cc3NC(C)C)on2)C1 [Example 398, 1-(5-(3-(1-acetylazetidin-3-yl)isoxazol-5-yl)-4-(isopropylamino)pyridin-2-yl)-1H-pyrazolo[3,4-b]pyridine-5-carbonitrile] | 6.9 ×10⁻⁶ cm/s | 8.40 | 6.52 | 
CC(C)Nc1cc(-n2ncc3cc(C#N)cnc32)ncc1-c1cn([C@@H](C)[C@H](C)O)nn1 (single isomer, unassigned) [Example 90] | 10.1 ×10⁻⁶ cm/s | 8.40 |  | 6.77

Now from value to compound:

Papp at 2 h, 3 µM [1] | pIC50 (IRAK4) | pEC50 ([2]; Homo sapiens) | pEC50 [2] | SMILES
28.8 ×10⁻⁶ cm/s | 8.40 | 6.24 |  | CCCn1cc(-c2cnc(-n3ncc4cc(C#N)cnc43)cc2NC2CCOCC2)nn1 [Example 49, 1-(5-(1-propyl-1H-1,2,3-triazol-4-yl)-4-((tetrahydro-2H-pyran-4-yl)amino)pyridin-2-yl)-1H-pyrazolo[3,4-b]pyridine-5-carbonitrile]
1.8 ×10⁻⁶ cm/s | 9.00 | 6.54 |  | CC(=O)N1CCCC(n2cc(-c3cnc(-n4ncc5cc(C#N)cnc54)cc3NC(C)C)nn2)C1 (stereo not drawn) [Example 160, 1-(5-(1-(1-acetylpiperidin-3-yl)-1H-1,2,3-triazol-4-yl)-4-(isopropylamino)pyridin-2-yl)-1H-pyrazolo[3,4-b]pyridine-5-carbonitrile]
9.1 ×10⁻⁶ cm/s | 8.70 | 6.35 |  | CC(C)Nc1cc(-n2ncc3cc(C#N)cnc32)ncc1-c1cn(C2CN(C(C)C)C2)nn1 [Example 150, 1-(4-(isopropylamino)-5-(1-(1-isopropylazetidin-3-yl)-1H-1,2,3-triazol-4-yl)pyridin-2-yl)-1H-pyrazolo[3,4-b]pyridine-5-carbonitrile]
9.4 ×10⁻⁶ cm/s | 9.00 | 6.54 |  | CCOC(=O)N[C@H]1CC[C@H](n2cc(-c3cnc(-n4ncc5cc(C#N)cnc54)cc3NC(C)C)nn2)CC1 [Example 395, ethyl ((1r,4r)-4-(4-(6-(5-cyano-1H-pyrazolo[3,4-b]pyridin-1-yl)-4-(isopropylamino)pyridin-3-yl)-1H-1,2,3-triazol-1-yl)cyclohexyl)carbamate]
12.4 ×10⁻⁶ cm/s | 7.96 |  | 5.95 | CCC(C)(O)Cn1cc(-c2cnc(-n3ncc4cc(C#N)cnc43)cc2NC(C)C)nn1 (single isomer, unassigned) [Example 92, 1-(5-(1-(2-hydroxy-2-methylbutyl)-1H-1,2,3-triazol-4-yl)-4-(isopropylamino)pyridin-2-yl)-1H-pyrazolo[3,4-b]pyridine-5-carbonitrile]
2.8 ×10⁻⁶ cm/s | 7.96 | 5.71 |  | CC(C)Nc1cc(-n2ncc3cc(C#N)cnc32)ncc1-c1cn(CCO)nn1 [Example 11, 1-(5-(1-(2-hydroxyethyl)-1H-1,2,3-triazol-4-yl)-4-(isopropylamino)pyridin-2-yl)-1H-pyrazolo[3,4-b]pyridine-5-carbonitrile]
22.5 ×10⁻⁶ cm/s | 8.40 | 6.80 |  | CCCn1cc(-c2cnc(-n3ncc4cc(C#N)cnc43)cc2NC(C)C)nn1 [Example 30, 1-(4-(isopropylamino)-5-(1-propyl-1H-1,2,3-triazol-4-yl)pyridin-2-yl)-1H-pyrazolo[3,4-b]pyridine-5-carbonitrile]
